We go through 35 compounds from a polymer gas permeability compilation.

SMILES strings stand for the structures.

Turning to `*/C=C/C1CCC(*)C1` (repeat unit), the CH4 permeability amounted to 2.5 Barrer, the CO2 permeability was 15.4 Barrer, the H2 permeability came to 21 Barrer and the N2 permeability stood at 1.5 Barrer. Further, the O2 permeability is 2.8 Barrer.
The corresponding values for `*Oc1ccc(-c2c(-c3ccccc3)c(-c3ccccc3)c(-c3ccc4c(c3)Oc3c(C#N)c(*)c(*)c(C#N)c3O4)c(-c3ccccc3)c2-c2ccccc2)cc1O*` (repeat unit) are 192 Barrer, 2390 Barrer, 1000 Barrer, 107 Barrer and 340 Barrer.
Regarding `*Oc1ccc(C(c2ccc(OC(*)=O)cc2)(C(F)(F)F)C(F)(F)F)cc1` (repeat unit), the CH4 permeability turned out to be 1.05 Barrer, the CO2 permeability was 24 Barrer, the H2 permeability was determined as 27 Barrer and the N2 permeability was 1.7 Barrer. Also, the O2 permeability came to 6.9 Barrer.
`*O[Si](*)(C)CC` (repeat unit) yielded a CH4 permeability of 474 Barrer, a CO2 permeability of 1510 Barrer, an N2 permeability of 160 Barrer and an O2 permeability of 332 Barrer.
`*/C=C/c1ccc(*)cc1[Si](C)(C)CCCC` (repeat unit) gave a CO2 permeability of 14 Barrer, an N2 permeability of 1.1 Barrer and an O2 permeability of 3.5 Barrer.
`*CC(*)OC1CC2CC1C1CCCC21` (repeat unit) came in with a CO2 permeability of 12.6 Barrer, an N2 permeability of 1.2 Barrer and an O2 permeability of 3.06 Barrer.
The compound `*c1ccc(-c2ccc(Oc3ccc4c(c3)C3(CC4(C)C)CC(C)(C)c4ccc(Oc5ccc(-c6ccc(N7C(=O)c8ccc(Oc9ccc%10c(c9)C(=O)N(*)C%10=O)cc8C7=O)cc6)cc5C(F)(F)F)cc43)c(C(F)(F)F)c2)cc1` (repeat unit) gave a CH4 permeability of 0.41 Barrer, a CO2 permeability of 22.6 Barrer, an N2 permeability of 1.12 Barrer and an O2 permeability of 13.1 Barrer.
Turning to `*c1ccc(Oc2ccc(C(C)(C)c3ccc(Oc4ccc(N5C(=O)c6ccc(C(=O)c7ccc8c(c7)C(=O)N(*)C8=O)cc6C5=O)cc4)cc3)cc2)cc1` (repeat unit), the CO2 permeability was determined as 2.8 Barrer, the H2 permeability amounted to 8.9 Barrer, the N2 permeability amounted to 0.11 Barrer and the O2 permeability amounted to 0.54 Barrer.
Compound `*c1c(C)c2c(c(N3C(=O)c4ccc(Oc5ccc6c(c5)C(=O)N(*)C6=O)cc4C3=O)c1C)C(C)(C)CC2` (repeat unit) had a CH4 permeability of 10.3 Barrer, a CO2 permeability of 161 Barrer, an N2 permeability of 10.3 Barrer and an O2 permeability of 43.9 Barrer.
Regarding `*c1cc(C(=O)OCCC(F)(F)C(F)(F)C(F)(F)C(F)(F)C(F)(F)C(F)(F)F)cc(N2C(=O)c3ccc(C(c4ccc5c(c4)C(=O)N(*)C5=O)(C(F)(F)F)C(F)(F)F)cc3C2=O)c1` (repeat unit), the CH4 permeability came to 0.44 Barrer, the CO2 permeability worked out at 17.8 Barrer, the N2 permeability is 0.74 Barrer and the O2 permeability amounted to 4.74 Barrer.
In turn, `*c1ccc(Oc2ccc(C(c3ccc(Oc4ccc(-n5c(=O)c6cc7c(=O)n(*)c(=O)c7cc6c5=O)cc4)cc3)(C(F)(F)F)C(F)(F)F)cc2)cc1` (repeat unit) showed a CH4 permeability of 0.499 Barrer, a CO2 permeability of 14.7 Barrer, an H2 permeability of 29.1 Barrer and an N2 permeability of 0.8 Barrer. This compound also displayed an O2 permeability of 3.94 Barrer.
As for `*Cc1ccc(C*)cc1` (repeat unit), the CO2 permeability came out at 1.3 Barrer, the H2 permeability is 3.2 Barrer, the N2 permeability came out at 0.047 Barrer and the O2 permeability is 0.235 Barrer.
Compound `*c1ccc(N(c2ccc(N3C(=O)c4ccc(C(c5ccc6c(c5)C(=O)N(*)C6=O)(C(F)(F)F)C(F)(F)F)cc4C3=O)cc2)c2ccc(N(c3ccccc3)c3ccccc3)cc2)cc1` (repeat unit) registered a CH4 permeability of 1.24 Barrer, a CO2 permeability of 11.8 Barrer, an N2 permeability of 0.45 Barrer and an O2 permeability of 1.97 Barrer.
Turning to `*Oc1c(Br)cc(C(c2cc(Br)c(OC(=O)c3cccc(C(*)=O)c3)c(Br)c2)(C(F)(F)F)C(F)(F)F)cc1Br` (repeat unit), the CH4 permeability is 0.597 Barrer, the CO2 permeability is 35.6 Barrer, the H2 permeability worked out at 65 Barrer and the N2 permeability amounted to 1.07 Barrer. Moreover, the O2 permeability is 6.75 Barrer.
The corresponding values for `*c1cc2c(cc1O)C1(CC2(C)C)CC(C)(C)c2cc(N3C(=O)C4C(C3=O)C3(Br)C(Br)=C(Br)C4(Br)C4C(=O)N(*)C(=O)C43)c(O)cc21` (repeat unit) are 4.9 Barrer, 138 Barrer, 274 Barrer, 5.3 Barrer and 31.2 Barrer.
Take `*Oc1ccc(-c2c(-c3ccc(Br)cc3)c(-c3ccc(Br)cc3)c(-c3ccc4c(c3)Oc3c(C#N)c(*)c(*)c(C#N)c3O4)c(-c3ccc(Br)cc3)c2-c2ccc(Br)cc2)cc1O*` (repeat unit): the CH4 permeability was found to be 102 Barrer, the CO2 permeability stood at 1430 Barrer, the H2 permeability was determined as 694 Barrer and the N2 permeability was 54 Barrer. The compound also returned an O2 permeability of 203 Barrer.
In the case of `*c1ccc(Sc2ccc(Sc3ccc(N4C(=O)c5ccc(C(c6ccc7c(c6)C(=O)N(*)C7=O)(C(F)(F)F)C(F)(F)F)cc5C4=O)cc3)cc2)cc1` (repeat unit), the CH4 permeability was found to be 0.28 Barrer, the CO2 permeability was 8.92 Barrer, the N2 permeability was found to be 0.34 Barrer and the O2 permeability turned out to be 1.77 Barrer.
Regarding `*c1ccc(Oc2cccc(N3C(=O)c4ccc(C(c5ccc6c(c5)C(=O)N(*)C6=O)(C(F)(F)F)C(F)(F)F)cc4C3=O)c2)cc1` (repeat unit), the CH4 permeability stood at 0.125 Barrer, the CO2 permeability is 6.11 Barrer, the H2 permeability came to 23.7 Barrer and the N2 permeability worked out at 0.259 Barrer. Moreover, the O2 permeability was 1.57 Barrer.
Compound `*/C=C/c1ccc(*)cc1[Si](C)(C)CCCCCCCC` (repeat unit) had a CO2 permeability of 60 Barrer, an N2 permeability of 3.9 Barrer and an O2 permeability of 12 Barrer.
`*OC(=O)c1ccc(C(=O)Oc2c(C)cc(C(C)(C)c3cc(C)c(O*)c(C)c3)cc2C)cc1` (repeat unit): the CH4 permeability was found to be 1.32 Barrer, the CO2 permeability worked out at 4.7 Barrer, the N2 permeability came out at 1.43 Barrer and the O2 permeability came to 7.3 Barrer.
For `*Oc1ccc(S(=O)(=O)c2ccc(Oc3c(C)cc(C(c4cc(C)c(*)c(C)c4)(C(F)(F)F)C(F)(F)F)cc3C)cc2C(O)(C(F)(F)F)C(F)(F)F)c(C(O)(C(F)(F)F)C(F)(F)F)c1` (repeat unit), the CO2 permeability was found to be 81 Barrer, the N2 permeability was determined as 5.92 Barrer and the O2 permeability worked out at 14 Barrer.
Consider `*CC(*)c1ccc(OC)cc1` (repeat unit), for which the CH4 permeability came to 0.91 Barrer, the CO2 permeability was found to be 18.9 Barrer, the N2 permeability worked out at 0.61 Barrer and the O2 permeability came out at 2.6 Barrer.
Regarding `*c1ccc(Cc2ccc(N3C(=O)c4ccc(C(=O)c5ccc6c(c5)C(=O)N(*)C6=O)cc4C3=O)cc2)cc1` (repeat unit), the H2 permeability was 4.03 Barrer, the N2 permeability stood at 0.02 Barrer and the O2 permeability worked out at 0.211 Barrer.
On to `*N=P(*)(C)c1ccccc1` (repeat unit), for which the CH4 permeability came out at 0.7 Barrer, the CO2 permeability was found to be 6.5 Barrer, the N2 permeability stood at 0.6 Barrer and the O2 permeability was determined as 1.8 Barrer.
In turn, `*c1cc(C(c2ccc(C)c(-n3c(=O)c4cc5oc6cc7c(cc6oc5cc4c3=O)C3(CC(C)(C)c4cc5oc6cc8c(=O)n(*)c(=O)c8cc6oc5cc43)CC7(C)C)c2)(C(F)(F)F)C(F)(F)F)ccc1C` (repeat unit) registered a CH4 permeability of 9 Barrer, a CO2 permeability of 210 Barrer, an H2 permeability of 220 Barrer and an N2 permeability of 9 Barrer. The O2 permeability stood at 39 Barrer.
On to `*Oc1cccc(C(C)(C)c2ccc(Oc3ccc(S(=O)(=O)c4ccc(*)cc4)cc3)cc2)c1` (repeat unit), for which the CH4 permeability stood at 0.052 Barrer, the CO2 permeability was 1.5 Barrer, the H2 permeability stood at 8 Barrer and the N2 permeability turned out to be 0.066 Barrer. For the same compound, the O2 permeability came to 0.39 Barrer.
The compound `*c1nc2cc(-c3ccc4[nH]c(-c5cc(Br)c(*)cc5Br)nc4c3)ccc2[nH]1` (repeat unit) showed an H2 permeability of 1.89 Barrer and an O2 permeability of 0.07 Barrer.
`*c1ccc(Oc2ccc(N3C(=O)c4ccc(S(=O)(=O)c5ccc6c(c5)C(=O)N(*)C6=O)cc4C3=O)cc2)cc1` (repeat unit) returned an H2 permeability of 5.61 Barrer, an N2 permeability of 0.027 Barrer and an O2 permeability of 0.2 Barrer.
Take `*CC(*)OCc1ccccc1` (repeat unit): the CO2 permeability was 11.1 Barrer, the N2 permeability was 0.79 Barrer and the O2 permeability was found to be 2.33 Barrer.
Compound `*CC(*)OC1CC2CCC1C2` (repeat unit) came in with a CO2 permeability of 25 Barrer, an N2 permeability of 0.96 Barrer and an O2 permeability of 3.55 Barrer.
The compound `*CC(*)c1ccc(C)cc1` (repeat unit) showed a CH4 permeability of 2.2 Barrer, a CO2 permeability of 29.8 Barrer, an N2 permeability of 1.5 Barrer and an O2 permeability of 7.2 Barrer.
`*C(C)=C(*)[Si](C)(C)C` (repeat unit) displayed a CH4 permeability of 14500 Barrer, a CO2 permeability of 31900 Barrer, an H2 permeability of 15500 Barrer and an N2 permeability of 5650 Barrer. Besides, the O2 permeability worked out at 12200 Barrer.
The corresponding values for `*Oc1ccc(Oc2ccc(C(=O)c3ccc(*)cc3)cc2)c(-c2cccc(C(F)(F)F)c2)c1` (repeat unit) are 0.041 Barrer, 1.5 Barrer, 5.1 Barrer, 0.051 Barrer and 0.38 Barrer.
On to `*c1cc(C(=O)OCCC(F)(F)C(F)(F)C(F)(F)C(F)(F)C(F)(F)C(F)(F)F)cc(N2C(=O)c3ccc(Oc4ccc5c(c4)C(=O)N(*)C5=O)cc3C2=O)c1` (repeat unit), for which the CH4 permeability turned out to be 0.36 Barrer, the CO2 permeability stood at 11 Barrer, the N2 permeability stood at 0.56 Barrer and the O2 permeability was found to be 2.61 Barrer.
In turn, `*CC(*)(F)F` (repeat unit) had a CH4 permeability of 0.02 Barrer, a CO2 permeability of 0.517 Barrer, an H2 permeability of 0.538 Barrer and an N2 permeability of 0.0223 Barrer. The compound further gave an O2 permeability of 0.0826 Barrer.
